Data reported in patent US11608338B2, “Imidazolonylquinolines and the use thereof as ATM kinase inhibitors” (priority 2015, dated 2023).

How the values were obtained:
[1] = biological target: human recombinant ATM (ataxia telangiectasia mutated) kinase (Homo sapiens (Human), UniProt Q13315); assay: ATM kinase assay, determination of ATM inhibition (IC50 ATM), TR-FRET; assay type: biochemical; conditions: 10 μM ATP, p53 substrate
Protocol: ATM Kinase Assay—Determination of ATM Inhibition (IC50 ATM):
The IC50 value was determined with the aid of a biochemical ATM kinase assay. The assay consists of two steps: the enzymatic reaction and the detection step. Firstly, ATM (ataxia telangiectasia mutated) protein and the test substance are incubated at different concentrations with addition of substrate protein p53 and ATP. ATM mediates the phosphorylation of p53 at several positions, including at amino acid S15. The amount of phosphorylated p53 is determined with the aid of specific antibodies and the TR-FRET technique. The enzymatic ATM assay is carried out as TR-FRET (HTRF™, Cisbio Bioassays) based 384-well assay. In the first step, purified human recombinant ATM (human ATM, full length, GenBank ID NM_000051, expressed in a mammal cell line) is incubated in assay buffer for 15 minutes with the ATM inhibitor in various concentrations and without test substance as negative or neutral control. The assay buffer comprises 25 mM HEPES pH 8.0, 10 mM Mg(CH3COO)2, 1 mM MnCl2, 0.1% BSA and 0.01% Brij® 35, 5 mM dithiothreitol (DTT). […] After incubation, usually for 2 hours (between 1.5 and 15 h), for signal development, the plates are analysed in a plate reader (EnVision, PerkinElmer) using TRF mode (and with laser excitation). […]

[2] = test system: phosphorylation of CHK2 (Thr68) in HCT116 cells; assay: Cellular pCHK2 assay, bleomycin-induced phosphorylation of CHK2 (phospho-Thr68), immunofluorescence high content; assay type: cell-based, human; conditions: 10 μM bleomycin, 4 h
Text: For the identification of substances which inhibit the phosphorylation of the protein kinase CHK2 at the amino acid threonine 68, an immunofluorescence-based “high content” analysis assay was used in HCT116 cells.
In vitro cell-based immunofluorescence assay for the identification of inhibitors of bleomycin-induced phosphorylation of CHK2 (phospho-Thr68) in the human colon carcinoma cell line HCT116:
HCT116 cells are sown out in a defined cell density in 384-well plates in culture medium (DMEM high glucose, 2 mM GlutaMax, 1 mM Na pyruvate, 10% FCS) and incubated overnight at 37° C. and 10% of CO2. […] After incubation for four hours at 37° C. and 10% of CO2, the cells are fixed (5 min, 4% formaldehyde in PBS), permeabilised (10 min, 0.2% Triton X-100 in PBS) and, after blocking of nonspecific binding sites (10% goat serum, 1% BSA in PBS), incubated overnight at 4° C. with a specific anti-pCHK2 antibody (cell signalling #2661). pCHK2 (Thr68) is determined using an Alexa488-labelled secondary anti-rabbit IgG antibody. […] The pCHK2 signal is detected using a high-content imager (Molecular Devices IMX Ultra) and automatic image analysis using the MetaXpress software belonging to the instrument. The number of cell nuclei which have a pCHK2 signal above a defined background is determined.

mTOR (human) = mTOR (human) (Homo sapiens (Human), UniProt P42345); assay: mTOR (human) radiometric kinase assay; assay type: biochemical; conditions: ATM versus mTOR
Protocol: Furthermore, the effect, in particular inhibition, of other kinases and thus the selectivity of the compounds according to the invention can be determined with the aid of the following assay:
mTOR (human) was incubated with 50 mM HEPES pH 7.5, 1 mM EGTA, 0.01% Tween 20, 2 mg/ml of the substrate, 3 mM MnCl2 and [γ-^33P-ATP] (specific activity approximately 500 cpm/pmol, concentration as necessary). The reaction was initiated by addition of MgATP solution. After incubation at room temperature for 40 minutes, the reaction was stopped by addition of 3% phosphoric acid. 10 μl of the reaction solution were then transferred dropwise onto a P30 filtermat and washed three times for 5 min in 75 mM phosphoric acid and once in methanol, dried and evaluated by means of liquid scintillation counting.

PI3K p110β/p85α (human) = PI3K p110β/p85α (human) (Homo sapiens (Human), UniProt P42338); assay: PI3K p110β/p85α (human), non-radioactive assay (HTRF); assay type: biochemical; conditions: ATM versus PI3Kbeta
Protocol: PI3K p110β/p85α (Human), Non-Radioactive Assay
(§1) PI3K p110β/p85α (human) was incubated in an assay buffer comprising 10 μM phosphatidylinositol 4,5-bisphosphate and MgATP (concentration as necessary). The reaction was initiated by addition of MgATP solution. After an incubation time of 30 min at room temperature, the reaction was stopped by addition of a solution consisting of EDTA and biotinylated phosphatidylinositol 3,4,5-trisphosphate. Finally, the detection buffer, consisting of a europium-labelled anti-GST monoclonal antibody, a GST-labelled GRP1 PH domain and streptavidin allophycocyanin, was added. The plate was read out via homogeneous time-resolved fluorescence (HTRF) and the corresponding signals were evaluated via the formula HTRF=10000×(Em665 nm/Em620 nm).

PI3K p110α/p85α (human) = PI3K p110α/p85α (human) (Homo sapiens (Human), UniProt P42336); assay: PI3K p110α/p85α (human), non-radioactive assay (HTRF); assay type: biochemical; conditions: ATM versus PI3Kalpha
Protocol: PI3K p110α/p85α (Human), Non-Radioactive Assay
as §1, with “p110α/p85α” for “p110β/p85α”, “After” for “After an”, “incubation” for “incubation time of 30 min”, “temperature for 40 minutes,” for “temperature,”

PI3K p110δ/p85α (human) = PI3K p110δ/p85α (human) (Homo sapiens (Human), UniProt O00329); assay: PI3K p110δ/p85α (human), non-radioactive assay (HTRF); assay type: biochemical; conditions: ATM versus PI3Kdelta
Protocol: PI3K p110δ/p85α (Human), Non-Radioactive Assay
as §1, with “p110δ/p85α” for “p110β/p85α”

PI3K (p120γ) (human) = PI3K (p120γ) (human) (Homo sapiens (Human), UniProt P48736); assay: PI3K (p120γ) (human), non-radioactive assay (HTRF); assay type: biochemical; conditions: ATM versus PI3Kgamma
Protocol: PI3K (p120γ) (Human), Non-Radioactive Assay
as §1, with “(p120γ)” for “p110β/p85α”, “nm). • MgATP=magnesium 5′-O-[hydroxy({[(hydroxyphosphinato)oxy]phosphinato}oxy)phosphoryl]adenosine • MgCl2=magnesium dichloride • EGTA=ethylene glycol bis(aminoethyl ether) N,N,N′,N′-tetraacetic acid • Tween 20=polysorbate 20 Medicament/Pharmaceutical Composition” for “nm).”

Chain of PI3K p110α/p85α (human) (P42336 whole entry): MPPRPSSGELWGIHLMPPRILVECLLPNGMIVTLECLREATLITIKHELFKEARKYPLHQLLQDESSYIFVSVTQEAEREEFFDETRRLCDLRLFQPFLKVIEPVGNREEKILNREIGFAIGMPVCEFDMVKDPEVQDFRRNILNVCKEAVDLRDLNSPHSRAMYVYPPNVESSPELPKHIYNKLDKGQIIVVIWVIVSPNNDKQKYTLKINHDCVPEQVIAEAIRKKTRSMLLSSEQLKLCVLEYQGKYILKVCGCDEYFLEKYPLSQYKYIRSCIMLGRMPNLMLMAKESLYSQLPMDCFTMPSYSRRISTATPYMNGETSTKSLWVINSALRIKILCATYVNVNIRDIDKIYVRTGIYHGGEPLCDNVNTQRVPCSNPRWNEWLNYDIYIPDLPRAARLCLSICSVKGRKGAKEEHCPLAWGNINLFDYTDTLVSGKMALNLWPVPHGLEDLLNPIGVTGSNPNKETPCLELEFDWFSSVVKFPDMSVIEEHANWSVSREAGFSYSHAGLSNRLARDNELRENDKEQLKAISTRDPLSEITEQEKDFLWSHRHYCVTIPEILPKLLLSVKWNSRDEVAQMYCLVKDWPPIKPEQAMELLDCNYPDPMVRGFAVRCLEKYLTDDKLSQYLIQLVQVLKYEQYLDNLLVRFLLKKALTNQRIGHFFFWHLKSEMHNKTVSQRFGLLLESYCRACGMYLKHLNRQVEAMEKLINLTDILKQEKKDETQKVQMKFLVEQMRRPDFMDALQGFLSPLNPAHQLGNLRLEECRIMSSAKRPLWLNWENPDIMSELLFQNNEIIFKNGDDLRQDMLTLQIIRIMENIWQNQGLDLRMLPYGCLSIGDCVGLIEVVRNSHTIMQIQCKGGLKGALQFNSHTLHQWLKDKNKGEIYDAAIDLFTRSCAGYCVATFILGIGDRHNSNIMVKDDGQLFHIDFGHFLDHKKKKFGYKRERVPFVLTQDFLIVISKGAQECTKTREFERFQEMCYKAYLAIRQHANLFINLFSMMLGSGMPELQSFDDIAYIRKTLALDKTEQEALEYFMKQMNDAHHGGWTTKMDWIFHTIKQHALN
Chain of PI3K p110α/p85α (human) (P27986 whole entry partner): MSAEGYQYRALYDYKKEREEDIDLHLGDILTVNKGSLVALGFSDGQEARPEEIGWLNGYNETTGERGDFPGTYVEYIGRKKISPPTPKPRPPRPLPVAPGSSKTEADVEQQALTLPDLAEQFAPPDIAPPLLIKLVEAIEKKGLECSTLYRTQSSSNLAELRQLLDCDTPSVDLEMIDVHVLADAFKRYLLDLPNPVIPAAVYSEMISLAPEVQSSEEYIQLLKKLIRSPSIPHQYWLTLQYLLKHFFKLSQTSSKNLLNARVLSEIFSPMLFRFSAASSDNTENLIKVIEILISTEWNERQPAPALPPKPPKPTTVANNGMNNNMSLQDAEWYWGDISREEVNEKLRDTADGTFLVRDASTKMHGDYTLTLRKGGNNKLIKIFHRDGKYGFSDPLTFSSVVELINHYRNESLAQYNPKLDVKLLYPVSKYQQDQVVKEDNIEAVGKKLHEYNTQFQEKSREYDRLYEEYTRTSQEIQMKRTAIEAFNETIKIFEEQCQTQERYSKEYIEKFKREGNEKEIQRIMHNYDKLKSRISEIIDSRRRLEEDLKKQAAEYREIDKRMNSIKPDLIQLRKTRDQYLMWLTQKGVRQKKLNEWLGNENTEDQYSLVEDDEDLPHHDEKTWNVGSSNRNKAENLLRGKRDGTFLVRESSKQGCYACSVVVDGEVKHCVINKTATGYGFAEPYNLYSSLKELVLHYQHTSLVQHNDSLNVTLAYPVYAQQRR
Chain of PI3K p110β/p85α (human) (P42338 whole entry): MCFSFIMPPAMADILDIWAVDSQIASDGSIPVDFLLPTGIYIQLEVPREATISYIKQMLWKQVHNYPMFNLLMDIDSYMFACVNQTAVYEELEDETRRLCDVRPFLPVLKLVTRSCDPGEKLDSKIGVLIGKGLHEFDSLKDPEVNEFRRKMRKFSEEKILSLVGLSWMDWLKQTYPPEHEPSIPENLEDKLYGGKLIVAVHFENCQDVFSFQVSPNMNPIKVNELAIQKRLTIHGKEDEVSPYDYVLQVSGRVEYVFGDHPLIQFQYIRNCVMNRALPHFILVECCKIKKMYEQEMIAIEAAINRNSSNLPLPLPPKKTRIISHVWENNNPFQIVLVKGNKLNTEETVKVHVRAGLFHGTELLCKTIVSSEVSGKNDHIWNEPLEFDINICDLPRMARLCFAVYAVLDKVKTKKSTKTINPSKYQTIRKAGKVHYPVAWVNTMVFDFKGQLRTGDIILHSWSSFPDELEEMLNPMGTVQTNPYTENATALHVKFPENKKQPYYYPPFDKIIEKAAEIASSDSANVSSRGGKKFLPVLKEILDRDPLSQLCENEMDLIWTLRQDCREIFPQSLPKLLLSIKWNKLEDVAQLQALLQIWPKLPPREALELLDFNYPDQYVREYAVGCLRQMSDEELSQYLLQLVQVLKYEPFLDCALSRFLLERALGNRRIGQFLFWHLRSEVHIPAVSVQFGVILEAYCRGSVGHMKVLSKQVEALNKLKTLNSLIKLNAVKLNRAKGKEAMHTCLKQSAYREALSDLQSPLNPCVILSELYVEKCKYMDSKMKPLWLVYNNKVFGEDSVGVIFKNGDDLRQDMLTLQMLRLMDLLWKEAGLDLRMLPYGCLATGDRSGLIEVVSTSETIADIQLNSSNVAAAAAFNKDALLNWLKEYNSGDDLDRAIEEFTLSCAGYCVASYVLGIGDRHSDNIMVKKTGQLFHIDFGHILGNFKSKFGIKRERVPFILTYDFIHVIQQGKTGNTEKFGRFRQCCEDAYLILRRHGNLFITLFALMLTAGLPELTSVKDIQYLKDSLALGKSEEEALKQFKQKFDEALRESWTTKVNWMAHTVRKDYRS
Chain of PI3K p110β/p85α (human) (P27986 whole entry partner): as the sequence (P27986 whole entry partner) above
Chain of PI3K (p120γ) (human) (P48736 whole entry): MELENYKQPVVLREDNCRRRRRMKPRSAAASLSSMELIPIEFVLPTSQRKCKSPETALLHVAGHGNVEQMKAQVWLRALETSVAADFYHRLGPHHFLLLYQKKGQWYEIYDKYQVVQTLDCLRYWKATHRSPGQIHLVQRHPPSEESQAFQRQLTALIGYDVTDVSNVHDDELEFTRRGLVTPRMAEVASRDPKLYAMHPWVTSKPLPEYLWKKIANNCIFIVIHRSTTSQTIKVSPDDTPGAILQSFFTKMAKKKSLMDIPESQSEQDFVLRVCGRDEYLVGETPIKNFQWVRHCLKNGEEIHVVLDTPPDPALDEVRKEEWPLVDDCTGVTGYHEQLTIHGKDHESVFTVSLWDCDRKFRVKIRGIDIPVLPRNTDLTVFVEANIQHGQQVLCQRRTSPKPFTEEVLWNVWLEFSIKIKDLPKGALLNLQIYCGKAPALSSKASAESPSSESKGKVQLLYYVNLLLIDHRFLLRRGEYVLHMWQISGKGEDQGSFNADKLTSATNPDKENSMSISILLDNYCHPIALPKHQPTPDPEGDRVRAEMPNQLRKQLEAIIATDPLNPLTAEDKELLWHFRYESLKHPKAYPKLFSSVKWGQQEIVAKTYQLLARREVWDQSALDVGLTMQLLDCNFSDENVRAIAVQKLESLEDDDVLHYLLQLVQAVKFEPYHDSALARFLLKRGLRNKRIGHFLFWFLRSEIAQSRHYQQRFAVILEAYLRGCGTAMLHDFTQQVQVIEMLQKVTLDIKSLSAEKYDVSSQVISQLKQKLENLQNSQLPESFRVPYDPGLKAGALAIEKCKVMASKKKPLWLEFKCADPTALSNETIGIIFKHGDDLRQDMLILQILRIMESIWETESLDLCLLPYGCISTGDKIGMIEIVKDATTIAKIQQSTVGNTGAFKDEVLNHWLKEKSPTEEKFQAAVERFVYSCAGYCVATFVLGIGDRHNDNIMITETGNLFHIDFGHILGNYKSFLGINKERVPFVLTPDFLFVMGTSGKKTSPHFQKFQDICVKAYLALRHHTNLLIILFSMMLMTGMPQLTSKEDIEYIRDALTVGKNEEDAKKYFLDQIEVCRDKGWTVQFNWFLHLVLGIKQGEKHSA
Chain of PI3K p110δ/p85α (human) (O00329 whole entry): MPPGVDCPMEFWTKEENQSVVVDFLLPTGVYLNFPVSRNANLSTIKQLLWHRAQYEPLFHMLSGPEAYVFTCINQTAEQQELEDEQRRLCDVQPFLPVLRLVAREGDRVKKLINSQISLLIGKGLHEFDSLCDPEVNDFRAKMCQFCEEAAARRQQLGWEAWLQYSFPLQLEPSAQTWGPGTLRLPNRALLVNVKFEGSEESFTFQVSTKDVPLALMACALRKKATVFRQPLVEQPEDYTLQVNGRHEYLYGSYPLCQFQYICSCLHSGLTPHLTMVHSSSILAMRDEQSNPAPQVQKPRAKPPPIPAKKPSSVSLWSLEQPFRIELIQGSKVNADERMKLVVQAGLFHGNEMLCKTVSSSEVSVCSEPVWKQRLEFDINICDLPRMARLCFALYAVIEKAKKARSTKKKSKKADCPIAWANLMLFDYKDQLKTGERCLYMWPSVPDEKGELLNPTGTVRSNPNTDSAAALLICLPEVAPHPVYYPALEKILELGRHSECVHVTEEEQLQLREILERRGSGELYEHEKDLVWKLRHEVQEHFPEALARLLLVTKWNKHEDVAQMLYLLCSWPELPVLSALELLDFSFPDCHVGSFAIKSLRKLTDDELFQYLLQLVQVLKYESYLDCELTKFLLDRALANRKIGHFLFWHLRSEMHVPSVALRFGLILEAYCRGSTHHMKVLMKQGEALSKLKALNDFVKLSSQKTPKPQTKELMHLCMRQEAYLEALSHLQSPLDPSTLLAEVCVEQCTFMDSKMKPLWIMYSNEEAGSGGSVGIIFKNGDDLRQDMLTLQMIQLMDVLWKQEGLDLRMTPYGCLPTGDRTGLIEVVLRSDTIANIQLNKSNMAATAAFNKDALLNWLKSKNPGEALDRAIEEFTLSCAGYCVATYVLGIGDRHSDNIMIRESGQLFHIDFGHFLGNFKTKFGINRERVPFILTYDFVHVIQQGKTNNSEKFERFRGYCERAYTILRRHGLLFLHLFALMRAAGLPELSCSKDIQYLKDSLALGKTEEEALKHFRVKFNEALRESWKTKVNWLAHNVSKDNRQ
Chain of PI3K p110δ/p85α (human) (P27986 whole entry partner): as the sequence (P27986 whole entry partner) above

Compound | IC50 [1] | IC50 [2] | ratio IC50 (ATM):IC50 (mTOR), selectivity with respect to mTOR (mTOR (human)) | ratio IC50 (ATM):IC50 (PI3Kbeta), selectivity with respect to PI3Kbeta (PI3K p110β/p85α (human)) | ratio of IC50 (ATM) and IC50 (PI3Kalpha), selectivity with respect to PI3Kalpha (PI3K p110α/p85α (human)) | ratio of IC50 (ATM) and IC50 (PI3Kdelta), selectivity with respect to PI3Kdelta (PI3K p110δ/p85α (human)) | ratio of IC50 (ATM) and IC50 (PI3Kgamma), selectivity with respect to PI3Kgamma (PI3K (p120γ) (human))
1-(3,5-Dimethyl-1H-pyrazol- 4-yl)-7-methoxy-3-methyl-8- (1-methyl-1H-pyrazol-4-yl)- 1,3-dihydroimidazo[4,5-c]- quinolin-2-one [Example 118] | < 10 nM | 200 to 1000 nM | at least 2000 times | at least 2000 times |  |  | 
COc1cc2ncc3[nH]c(=O)n(-c4ncc(F)cc4F)c3c2cc1-c1cn(C)nc1C [Example 108, 1-(3,5-Difluoropyridin-2-yl)-8-(1,3-dimethyl-1H-pyrazol-4-yl)-7-methoxy-1,3-dihydroimidazo[4,5-c]-quinolin-2-one] |  |  |  | at least 2000 times | at least 2000 times | at least 2000 times | at least 2000 times
CCc1cncc(F)c1-n1c(=O)n(C)c2cnc3cc(OC)c(-c4cn[nH]n4)cc3c21 [Example 125, 1-(3-Ethyl-5-fluoropyridin-4-yl)-7-methoxy-3-methyl-8-(2H-1,2,3-triazol-4-yl)-1,3-dihydroimidazo[4,5-c] quinolin-2-one] |  |  | at least 2000 times | at least 2000 times | at least 2000 times | at least 2000 times | at least 2000 times
COc1cc2ncc3c(c2cc1-c1ccc2nc(C)[nH]c2c1)n(-c1c(F)cncc1OC)c(=O)n3C [Example 136, 1-(3-Fluoro-5-methoxy-pyridin-4-yl)-7-methoxy-3-methyl-8-(2-methyl-3H-benzoimidazol-5-yl)-1,3-dihydroimidazo[4,5-c]-quinolin-2-one] |  |  | at least 2000 times | at least 2000 times |  |  | at least 2000 times
[2H]C([2H])([2H])Oc1cncc(F)c1-n1c(=O)n(C)c2cnc3cc(OC)c(-c4cnn(C)c4)cc3c21 [Example 145, 1-[3-Fluoro-5-(trideuterio-methoxy)-4-pyridyl]-7-methoxy-3-methyl-8-(1-methylpyrazol-4-yl)imidazo-[4,5-c]quinolin-2-one] |  |  | at least 2000 times | at least 2000 times |  | at least 2000 times | at least 2000 times
COc1ccc(-c2cc3c(cc2OC)ncc2c3n(-c3cn(C)nc3F)c(=O)n2C)cn1 [Example 159, 1-(3-Fluoro-1-methyl-1H-pyrazo1-4-yl)-7-methoxy-8-(6-methoxypyridin-3-yl)-3-methyl-1,3-dihydroimidazo-[4,5-c]quinolin-2-one] |  |  | at least 2000 times | at least 2000 times |  |  | 
COc1cc2ncc3c(c2cc1-c1cnn(C)c1)n(-c1ncc(OCS(C)(=O)=O)cc1F)c(=O)n3C [Example 201, 1-(3-Fluoro-5-methyl-sulfonylmethoxypyridin-2-yl)-7-methoxy-3-methyl-8-(1-methyl-1H-pyrazol-4-yl)-1,3-dihydroimidazo[4,5-c]-quinolin-2-one] |  |  | at least 2000 times | at least 2000 times | at least 2000 times | at least 2000 times | at least 2000 times
